{
  "source": "ChEMBL document CHEMBL4321854",
  "about": "“Discovery of a First-in-Class Mitogen-Activated Protein Kinase Kinase 1/2 Degrader” (J Med Chem, 2019)",
  "key": {"[1]": {"biological_target": "T1, von Hippel-Lindau disease tumor suppressor/Dual specificity mitogen-activated protein kinase kinase 2 (Homo sapiens) (UniProt P36507+P40337)", "T1 sequence (P36507 whole entry, looked up)": "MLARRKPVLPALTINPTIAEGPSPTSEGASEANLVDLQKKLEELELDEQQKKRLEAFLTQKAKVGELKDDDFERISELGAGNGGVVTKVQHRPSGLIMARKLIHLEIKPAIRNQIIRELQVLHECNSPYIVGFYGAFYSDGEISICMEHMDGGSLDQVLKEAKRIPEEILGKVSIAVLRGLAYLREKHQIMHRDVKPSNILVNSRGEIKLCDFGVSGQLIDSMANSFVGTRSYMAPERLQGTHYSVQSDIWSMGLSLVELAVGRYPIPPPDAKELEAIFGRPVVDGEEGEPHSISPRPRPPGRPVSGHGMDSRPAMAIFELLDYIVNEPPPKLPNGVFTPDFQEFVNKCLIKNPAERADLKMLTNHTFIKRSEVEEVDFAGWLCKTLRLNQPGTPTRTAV", "T1 sequence (P40337 whole entry, looked up)": "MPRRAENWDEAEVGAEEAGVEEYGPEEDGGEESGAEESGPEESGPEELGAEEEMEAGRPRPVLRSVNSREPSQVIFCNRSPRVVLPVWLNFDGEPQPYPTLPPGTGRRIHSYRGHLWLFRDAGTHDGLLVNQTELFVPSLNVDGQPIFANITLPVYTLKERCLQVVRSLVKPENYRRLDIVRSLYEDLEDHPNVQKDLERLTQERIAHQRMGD", "experiment": "Protac activity against VHL/MEK2 in human SK-MEL-28 cells harboring with BRAF V600E variant assessed as degradation of MEK2 at 0.1 to 0.3 uM after 4 hrs by Western blot analysis", "assay_type": "cell-based"}, "[2]": {"biological_target": "T2, von Hippel-Lindau disease tumor suppressor/Dual specificity mitogen-activated protein kinase kinase 1 (Homo sapiens) (UniProt Q02750+P40337)", "T2 sequence (P40337 whole entry, looked up)": "as above", "T2 sequence (Q02750 whole entry, looked up)": "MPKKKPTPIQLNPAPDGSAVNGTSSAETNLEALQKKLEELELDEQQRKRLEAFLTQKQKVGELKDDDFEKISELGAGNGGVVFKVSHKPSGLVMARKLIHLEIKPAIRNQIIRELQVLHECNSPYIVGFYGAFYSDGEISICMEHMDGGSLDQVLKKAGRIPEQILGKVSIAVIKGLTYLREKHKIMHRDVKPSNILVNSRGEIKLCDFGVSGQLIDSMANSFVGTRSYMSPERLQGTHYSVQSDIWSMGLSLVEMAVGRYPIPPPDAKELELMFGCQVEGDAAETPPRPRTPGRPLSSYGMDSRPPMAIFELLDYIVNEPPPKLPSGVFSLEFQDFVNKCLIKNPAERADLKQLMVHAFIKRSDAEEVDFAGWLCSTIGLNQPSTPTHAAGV", "experiment": "Protac activity against VHL/MEK1 in human SK-MEL-28 cells harboring with BRAF V600E variant assessed as degradation of MEK1 at 0.1 to 0.3 uM by Western blot analysis", "assay_type": "cell-based", "conditions": "TDE = time-dependent effect"}, "[3]": {"biological_target": "T3, von Hippel-Lindau disease tumor suppressor/Dual specificity mitogen-activated protein kinase kinase 2/Dual specificity mitogen-activated protein kinase kinase 1 (Homo sapiens) (UniProt P36507+Q02750+P40337)", "T3 sequence (P36507 whole entry, looked up)": "as the sequence (P36507 whole entry, looked up) above", "T3 sequence (P40337 whole entry, looked up)": "as the sequence (P40337 whole entry, looked up) above", "T3 sequence (Q02750 whole entry, looked up)": "as the sequence (Q02750 whole entry, looked up) above", "experiment": "Protac activity against VHL/MEK1/2 in human HT-29 cells harboring with BRAF V600E variant assessed as reduction in phosphorylation of ERK at T202/Y204 residues after 24 hrs by Western blot analysis", "assay_type": "cell-based"}, "[4]": {"system": "SK-MEL-28", "experiment": "Inhibition of colony formation in human SK-MEL-28 cells at 10 to 100 nM supplemented with fresh medium containing compound every 3 days for 14 days by crystal violet staining based assay", "assay_type": "functional, cell-based"}, "[5]": {"biological_target": "T3, von Hippel-Lindau disease tumor suppressor/Dual specificity mitogen-activated protein kinase kinase 2/Dual specificity mitogen-activated protein kinase kinase 1 (Homo sapiens)", "experiment": "Protac activity against VHL/MEK1/2 in human COLO205 cells harboring with BRAF V600E variant assessed as reduction in phosphorylation of ERK at T202/Y204 residues after 24 hrs by Western blot analysis", "assay_type": "cell-based"}, "[6]": {"biological_target": "von Hippel-Lindau disease tumor suppressor/Leukocyte receptor cluster member 8 (Homo sapiens) (UniProt P40337+Q96PV6)", "sequence (P40337 whole entry, looked up)": "as the sequence (P40337 whole entry, looked up) above", "sequence (Q96PV6 whole entry, looked up)": "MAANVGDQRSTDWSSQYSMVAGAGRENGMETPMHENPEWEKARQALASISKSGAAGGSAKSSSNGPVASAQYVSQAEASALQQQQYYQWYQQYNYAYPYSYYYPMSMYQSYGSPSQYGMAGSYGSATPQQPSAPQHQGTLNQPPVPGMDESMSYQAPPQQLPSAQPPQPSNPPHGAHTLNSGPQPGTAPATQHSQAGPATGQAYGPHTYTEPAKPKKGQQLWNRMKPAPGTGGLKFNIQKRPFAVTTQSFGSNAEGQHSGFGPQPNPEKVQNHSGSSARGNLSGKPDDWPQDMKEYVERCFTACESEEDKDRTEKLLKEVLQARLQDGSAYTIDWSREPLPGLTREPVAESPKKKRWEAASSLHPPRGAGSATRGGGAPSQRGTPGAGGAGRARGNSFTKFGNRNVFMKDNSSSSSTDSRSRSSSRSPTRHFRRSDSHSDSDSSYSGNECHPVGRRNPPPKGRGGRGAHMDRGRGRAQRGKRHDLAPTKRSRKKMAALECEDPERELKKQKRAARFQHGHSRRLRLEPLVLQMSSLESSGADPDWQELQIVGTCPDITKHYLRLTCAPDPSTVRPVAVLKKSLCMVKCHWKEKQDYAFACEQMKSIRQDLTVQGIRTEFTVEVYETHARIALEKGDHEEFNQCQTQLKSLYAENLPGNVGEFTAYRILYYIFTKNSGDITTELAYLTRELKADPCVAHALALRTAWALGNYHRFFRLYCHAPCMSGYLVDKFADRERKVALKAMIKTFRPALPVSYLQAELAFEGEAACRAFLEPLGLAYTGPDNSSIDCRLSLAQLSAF", "experiment": "Protac activity against VHL/LENG8 in human HT-29 cells harboring with BRAF V600E variant assessed as reduction in LENG8 protein level at 0.1 uM after 10 hrs by LC-MS based Volcano plot analysis", "assay_type": "cell-based"}, "[7]": {"biological_target": "von Hippel-Lindau disease tumor suppressor/Dual specificity mitogen-activated protein kinase kinase 1 (Homo sapiens, UniProt Q02750+P40337, V600E)", "sequence (P40337 whole entry, looked up, stated change not applied)": "as the sequence (P40337 whole entry, looked up) above", "sequence (Q02750 whole entry, looked up, stated change not applied)": "as the sequence (Q02750 whole entry, looked up) above", "experiment": "(§1) Protac activity against VHL/MEK1 in human SK-MEL-28 cells harboring BRAF V600E variant assessed as degradation of MEK1 after 24 hrs by Western blot analysis", "assay_type": "cell-based"}, "[8]": {"biological_target": "T2, von Hippel-Lindau disease tumor suppressor/Dual specificity mitogen-activated protein kinase kinase 1 (Homo sapiens)", "experiment": "as §1", "assay_type": "cell-based"}, "[9]": {"biological_target": "T3, von Hippel-Lindau disease tumor suppressor/Dual specificity mitogen-activated protein kinase kinase 2/Dual specificity mitogen-activated protein kinase kinase 1 (Homo sapiens)", "experiment": "Protac activity against VHL/MEK1/2 in human HT-29 cells harboring with BRAF V600E variant assessed as phosphorylation of ERK at T202/Y204 residues at 0.3 uM pretreated with proteasome inhibitor, MG-132 for 2 hrs followed by incubation with compound for 10 hrs by Western blot analysis", "assay_type": "cell-based"}, "[10]": {"biological_target": "T1, von Hippel-Lindau disease tumor suppressor/Dual specificity mitogen-activated protein kinase kinase 2 (Homo sapiens)", "experiment": "Protac activity against VHL/MEK2 in human UACC257 cells harboring with BRAF V600E variant assessed as degradation of MEK2 at 3 to 5 uM after 24 hrs by Western blot analysis", "assay_type": "cell-based"}, "[11]": {"biological_target": "T3, von Hippel-Lindau disease tumor suppressor/Dual specificity mitogen-activated protein kinase kinase 2/Dual specificity mitogen-activated protein kinase kinase 1 (Homo sapiens)", "experiment": "Protac activity against VHL/MEK1/2 in human UACC257 cells harboring with BRAF V600E variant assessed as reduction in phosphorylation of ERK at T202/Y204 residues after 24 hrs by Western blot analysis", "assay_type": "cell-based"}},
  "note": "Activity calls are given as the source filed them. No cut-off for these calls is given here.",
  "data": [
    {"smiles": "Cc1ncsc1-c1ccc([C@H](C)NC(=O)[C@@H]2C[C@@H](O)CN2C(=O)[C@@H](NC(=O)CCCCCCCCCCNCCCONC(=O)c2ccc(F)c(F)c2Nc2ccc(I)cc2F)C(C)(C)C)cc1", "values": [
      {"measurement": "Activity", "setting": "[1]", "result": "Active"},
      {"measurement": "Activity", "setting": "[2]", "result": "Tde"},
      {"measurement": "Activity", "setting": "[3]", "result": "Dose-dependent effect"},
      {"measurement": "inhibition", "setting": "[4]", "result": "Active"},
      {"measurement": "Activity", "setting": "[5]", "result": "Dose-dependent effect"},
      {"measurement": "Activity", "setting": "[6]", "result": "Active"},
      {"measurement": "DC50", "setting": "[7]", "result": 31, "unit": "nM"},
      {"measurement": "Activity", "setting": "[8]", "result": "Dose-dependent effect"},
      {"measurement": "Activity", "setting": "[9]", "result": "inactive"},
      {"measurement": "Activity", "setting": "[10]", "result": "Active"},
      {"measurement": "Activity", "setting": "[11]", "result": "Dose-dependent effect"}
    ]}
  ]
}
